Test results from ChEMBL document CHEMBL1201862, “PubChem BioAssay data set” (2004).
Values belong to the compound of their own block, whether it stands above or below them. Calls of active or inactive are those of the source.

How the values were obtained:
[1] = cells
[2] = molecular target: T1, Fatty acid synthase (Homo sapiens, UniProt P49327); assay: inhibition of human FAS-TE enzyme activity – biochemical, endpoint fluorescence intensity, uHTS hits, dose response (AID 624327); assay type: functional;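 note: fluorescence from hydrolysis of an O-methyl fluorescein acyl ester substrate by the enzyme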
[3] = molecular target: T1, Fatty acid synthase; assay: inhibition of human FAS-TE enzyme activity – biochemical, kinetic fluorescence intensity, dose response (AID 624326); assay type: functional;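 note: rate of fluorescence rise from hydrolysis of a fluorogenic O-methyl fluorescein ester substrate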
[4] = viability of uninfected HEp-2 cells – cell-based, HTS, cytotoxicity control for RSV inhibitor project, dose response (AID 2410); assay type: functional; settings: human respiratory syncytial virus
[5] = molecular target: Cytochrome P450 2C9 (Homo sapiens, UniProt P11712)
[6] = molecular target: Heat shock cognate 71 kDa protein (Homo sapiens, UniProt P11142); assay: In Vitro Hsc70 Dose Response Fluorescence Polarization Assay. [Related pubchem assays: 1072 ]
[7] = molecular target: Heat shock 70 kDa protein 1A (Homo sapiens, UniProt P0DMV8); assay: inhibition of Hsp70 binding activity – biochemical, fluorescence polarization, SAR follow-up (AID 1072)
[8] = molecular target: Peroxisome proliferator-activated receptor gamma/Nuclear receptor coactivator 3 (Homo sapiens, UniProt P37231); assay: (§1) TR-FRET dose response biochemical High Throughput Screening assay for agonists of the steroid receptor coactivator 3 (SRC-3) recruitment by the peroxisome proliferator-activated receptor gamma (PPAR gamma): non-selective agonists. [Related pubchem assays: 1301 (Confirmation screen.), 1048 (Primary screen.)]; assay type: functional
[9] = molecular target: Peroxisome proliferator-activated receptor gamma/Nuclear receptor corepressor 2 (Homo sapiens, UniProt P37231+Q9Y618); assay type: functional
[10] = molecular target: Peroxisome proliferator-activated receptor gamma/Nuclear receptor coactivator 1 (Homo sapiens, UniProt P37231); assay: as §1, with “1 (SRC-1)” for “3 (SRC-3)”, “assays (depositor defined):AID1300, AID1808, AID504735, AID631]” for “assays: 1301 (Confirmation screen.), 1048 (Primary screen.)]”; assay type: protein assay
[11] = molecular target: Photoreceptor-specific nuclear receptor (Homo sapiens, UniProt Q9Y5X4); assay type: functional;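 note: potency for compounds that break the NR2E3 corepressor complex and count as activators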
[12] = molecular target: Peroxisome proliferator-activated receptor gamma/Nuclear receptor coactivator 2 (Homo sapiens, UniProt P37231); assay: TR-FRET dose response biochemical High Throughput Screening assay for agonists of the steroid receptor coactivator 2 (SRC-2) recruitment by the peroxisome proliferator-activated receptor gamma (PPAR gamma): non-selective agonists. [Related pubchem assays: 1297, 1032 ]; assay type: functional

T1 sequence (P49327 whole entry): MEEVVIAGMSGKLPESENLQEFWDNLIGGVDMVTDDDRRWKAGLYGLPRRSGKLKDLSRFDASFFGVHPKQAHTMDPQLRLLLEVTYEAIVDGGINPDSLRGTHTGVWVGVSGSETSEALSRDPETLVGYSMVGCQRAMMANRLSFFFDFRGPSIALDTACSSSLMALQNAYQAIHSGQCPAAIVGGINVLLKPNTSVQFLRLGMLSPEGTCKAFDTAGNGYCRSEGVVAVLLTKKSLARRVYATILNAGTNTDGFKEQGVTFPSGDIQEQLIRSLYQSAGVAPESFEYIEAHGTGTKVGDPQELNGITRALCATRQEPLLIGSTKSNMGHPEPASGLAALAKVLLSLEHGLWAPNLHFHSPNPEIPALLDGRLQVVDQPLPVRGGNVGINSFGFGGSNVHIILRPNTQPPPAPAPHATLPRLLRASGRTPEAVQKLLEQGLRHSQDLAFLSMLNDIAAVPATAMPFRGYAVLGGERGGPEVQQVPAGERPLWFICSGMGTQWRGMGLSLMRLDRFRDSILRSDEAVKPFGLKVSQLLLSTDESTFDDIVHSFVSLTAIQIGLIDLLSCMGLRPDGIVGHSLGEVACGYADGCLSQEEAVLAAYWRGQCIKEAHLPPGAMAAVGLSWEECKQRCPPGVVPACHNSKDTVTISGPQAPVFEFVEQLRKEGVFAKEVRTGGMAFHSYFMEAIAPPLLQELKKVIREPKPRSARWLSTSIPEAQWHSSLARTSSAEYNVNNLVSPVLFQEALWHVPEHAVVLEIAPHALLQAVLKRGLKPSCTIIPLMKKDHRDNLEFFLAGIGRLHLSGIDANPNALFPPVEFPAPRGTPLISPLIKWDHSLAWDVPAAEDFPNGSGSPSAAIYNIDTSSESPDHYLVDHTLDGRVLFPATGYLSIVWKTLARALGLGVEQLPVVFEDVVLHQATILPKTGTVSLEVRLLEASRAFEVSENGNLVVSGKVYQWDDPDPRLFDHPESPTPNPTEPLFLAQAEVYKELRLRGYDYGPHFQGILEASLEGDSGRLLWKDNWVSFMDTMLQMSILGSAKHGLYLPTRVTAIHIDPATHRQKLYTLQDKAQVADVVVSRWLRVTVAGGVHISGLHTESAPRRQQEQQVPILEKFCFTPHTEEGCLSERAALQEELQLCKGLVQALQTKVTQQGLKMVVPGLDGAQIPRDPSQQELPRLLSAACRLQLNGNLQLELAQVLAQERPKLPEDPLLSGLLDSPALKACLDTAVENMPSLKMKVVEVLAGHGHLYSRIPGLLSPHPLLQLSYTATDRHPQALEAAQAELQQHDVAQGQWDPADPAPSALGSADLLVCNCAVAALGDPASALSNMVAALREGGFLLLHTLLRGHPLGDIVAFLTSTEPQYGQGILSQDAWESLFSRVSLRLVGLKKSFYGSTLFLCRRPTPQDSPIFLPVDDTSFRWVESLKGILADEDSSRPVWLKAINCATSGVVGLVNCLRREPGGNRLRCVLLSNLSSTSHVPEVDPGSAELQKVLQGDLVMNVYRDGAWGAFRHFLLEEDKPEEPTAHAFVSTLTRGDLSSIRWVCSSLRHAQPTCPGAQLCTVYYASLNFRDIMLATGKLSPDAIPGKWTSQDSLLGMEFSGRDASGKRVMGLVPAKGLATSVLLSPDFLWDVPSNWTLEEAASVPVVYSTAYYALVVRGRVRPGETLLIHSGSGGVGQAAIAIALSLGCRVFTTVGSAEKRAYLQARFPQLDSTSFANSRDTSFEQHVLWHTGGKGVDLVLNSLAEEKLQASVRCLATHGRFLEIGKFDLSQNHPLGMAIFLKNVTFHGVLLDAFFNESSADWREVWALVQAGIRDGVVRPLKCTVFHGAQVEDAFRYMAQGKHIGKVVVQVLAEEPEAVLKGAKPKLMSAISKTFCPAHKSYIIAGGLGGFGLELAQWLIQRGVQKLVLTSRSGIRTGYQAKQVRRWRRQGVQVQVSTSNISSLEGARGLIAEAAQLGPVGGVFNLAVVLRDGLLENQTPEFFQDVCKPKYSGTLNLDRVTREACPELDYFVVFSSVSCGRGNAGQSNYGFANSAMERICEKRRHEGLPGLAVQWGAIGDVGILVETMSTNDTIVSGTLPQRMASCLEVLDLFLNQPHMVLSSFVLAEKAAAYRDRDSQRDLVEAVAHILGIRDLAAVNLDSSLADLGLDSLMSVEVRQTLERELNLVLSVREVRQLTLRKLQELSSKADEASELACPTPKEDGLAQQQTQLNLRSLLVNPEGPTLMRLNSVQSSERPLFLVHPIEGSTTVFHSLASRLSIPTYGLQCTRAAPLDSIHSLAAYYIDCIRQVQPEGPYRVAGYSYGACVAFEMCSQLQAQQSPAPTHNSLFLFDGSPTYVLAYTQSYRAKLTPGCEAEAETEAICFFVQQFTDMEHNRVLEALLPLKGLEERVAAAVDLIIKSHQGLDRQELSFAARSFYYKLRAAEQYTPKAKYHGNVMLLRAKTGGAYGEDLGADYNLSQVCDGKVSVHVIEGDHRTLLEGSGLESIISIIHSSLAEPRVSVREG
Chain of Photoreceptor-specific nuclear receptor (Q9Y5X4 whole entry): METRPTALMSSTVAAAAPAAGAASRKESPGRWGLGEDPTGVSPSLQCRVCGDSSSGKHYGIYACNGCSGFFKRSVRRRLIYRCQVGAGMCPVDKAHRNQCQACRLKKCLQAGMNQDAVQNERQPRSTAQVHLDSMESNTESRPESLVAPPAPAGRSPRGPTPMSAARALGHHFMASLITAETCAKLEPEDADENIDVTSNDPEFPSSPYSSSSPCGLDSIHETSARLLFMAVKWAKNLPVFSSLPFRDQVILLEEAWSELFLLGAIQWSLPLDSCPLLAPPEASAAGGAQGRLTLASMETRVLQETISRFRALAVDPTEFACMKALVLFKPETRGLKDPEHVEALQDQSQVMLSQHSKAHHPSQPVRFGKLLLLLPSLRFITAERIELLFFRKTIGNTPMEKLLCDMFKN
Chain of Cytochrome P450 2C9 (P11712 whole entry): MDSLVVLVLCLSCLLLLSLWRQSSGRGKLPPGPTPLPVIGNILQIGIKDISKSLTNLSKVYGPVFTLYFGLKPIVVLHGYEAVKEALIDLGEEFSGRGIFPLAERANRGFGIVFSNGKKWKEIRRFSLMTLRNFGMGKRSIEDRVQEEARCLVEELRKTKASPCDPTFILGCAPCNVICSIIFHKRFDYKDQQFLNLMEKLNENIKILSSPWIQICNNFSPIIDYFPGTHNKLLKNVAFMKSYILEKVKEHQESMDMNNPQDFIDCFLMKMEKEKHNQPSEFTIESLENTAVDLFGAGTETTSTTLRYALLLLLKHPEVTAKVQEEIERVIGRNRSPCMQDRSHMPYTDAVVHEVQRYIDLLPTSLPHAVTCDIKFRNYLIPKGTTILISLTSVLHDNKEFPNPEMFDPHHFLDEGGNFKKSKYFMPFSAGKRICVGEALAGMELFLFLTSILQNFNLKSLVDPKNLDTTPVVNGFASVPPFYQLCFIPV
Chain of Heat shock cognate 71 kDa protein (P11142 whole entry): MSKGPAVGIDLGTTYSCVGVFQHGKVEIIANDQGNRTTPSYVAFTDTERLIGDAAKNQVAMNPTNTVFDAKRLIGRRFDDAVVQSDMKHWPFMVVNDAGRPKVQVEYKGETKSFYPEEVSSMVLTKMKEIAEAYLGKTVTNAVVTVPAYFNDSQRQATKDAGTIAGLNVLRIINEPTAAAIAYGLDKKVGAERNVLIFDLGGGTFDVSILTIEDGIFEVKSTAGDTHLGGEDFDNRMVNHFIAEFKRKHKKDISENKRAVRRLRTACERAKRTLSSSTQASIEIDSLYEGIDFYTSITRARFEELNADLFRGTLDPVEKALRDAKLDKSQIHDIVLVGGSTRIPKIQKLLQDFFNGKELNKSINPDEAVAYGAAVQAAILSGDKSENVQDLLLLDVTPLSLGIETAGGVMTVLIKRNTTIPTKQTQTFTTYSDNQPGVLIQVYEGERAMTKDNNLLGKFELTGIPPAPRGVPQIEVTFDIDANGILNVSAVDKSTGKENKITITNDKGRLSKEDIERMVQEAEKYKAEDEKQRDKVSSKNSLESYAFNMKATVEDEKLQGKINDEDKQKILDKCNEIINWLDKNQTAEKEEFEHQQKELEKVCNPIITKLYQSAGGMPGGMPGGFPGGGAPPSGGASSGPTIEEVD
Chain of Heat shock 70 kDa protein 1A (P0DMV8 whole entry): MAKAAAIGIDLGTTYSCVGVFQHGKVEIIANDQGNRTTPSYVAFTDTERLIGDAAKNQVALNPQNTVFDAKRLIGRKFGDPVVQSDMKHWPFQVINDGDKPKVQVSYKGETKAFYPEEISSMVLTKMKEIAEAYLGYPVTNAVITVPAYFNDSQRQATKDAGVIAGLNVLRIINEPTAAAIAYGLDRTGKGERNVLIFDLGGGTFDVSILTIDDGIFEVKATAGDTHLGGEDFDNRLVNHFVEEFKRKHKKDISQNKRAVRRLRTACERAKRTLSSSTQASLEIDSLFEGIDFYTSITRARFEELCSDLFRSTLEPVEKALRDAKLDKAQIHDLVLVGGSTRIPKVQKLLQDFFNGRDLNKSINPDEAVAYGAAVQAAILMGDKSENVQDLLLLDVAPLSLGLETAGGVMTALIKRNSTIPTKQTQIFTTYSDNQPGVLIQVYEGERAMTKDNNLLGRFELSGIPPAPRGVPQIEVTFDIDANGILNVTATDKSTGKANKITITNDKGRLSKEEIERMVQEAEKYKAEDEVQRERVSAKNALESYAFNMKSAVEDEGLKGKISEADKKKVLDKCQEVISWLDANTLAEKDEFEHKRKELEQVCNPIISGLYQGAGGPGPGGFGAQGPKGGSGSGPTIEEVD

SMILES: Cc1ccc2cc3cc(C(=O)N4CCCCC4C)oc3nc2c1 (configuration not stated)
IC50 [1]: 21.4 µM (active)
IC50 [2]: 2.28 µM (active)
IC50 [3]: 4.44 µM (active)
CC50 [4]: > 50 µM (active)
AC50 [5]: inconclusive

SMILES: O=C(O)CCc1c2ccc(=O)c(O)c-2oc2c(O)c(O)ccc12
IC50 [6]: 3.98 µM (active)
IC50 [7]: 0.578 µM (active)

EC50 [8]: > 79.4 µM (not active)
IC50 [9]: 6.29 µM (active)
EC50 [10]: > 79.4 µM (inactive)
IC50 [11]: > 39.8 µM (not active)
EC50 [12]: > 79.4 µM (not active)
SMILES: COC(=O)c1cc(Br)c(=O)n(-c2nccs2)c1
